From the NIST ThermoML archive (doi:10.1021/je700022b)

Experiment: xn = mol fraction of the nth substance listed
Details: Liquid; for mass density: Constant-volume piezometry

CCCCn1cc[n+](C)c1.F[P-](F)(F)(F)(F)F [1-butyl-3-methylimidazolium hexafluorophosphate] + O=C=O
Details	mass density, 293.15 K [kg/m3]	mass density, 313.15 K [kg/m3]	mass density, 333.15 K [kg/m3]	mass density, 353.15 K [kg/m3]	viscosity, 293.15 K [mPa·s]	viscosity, 313.15 K [mPa·s]	viscosity, 333.15 K [mPa·s]	viscosity, 353.15 K [mPa·s]
10000 kPa, x2 = 0.056	1371	1350	1327	1306	372	119	49.3	25.2
10000 kPa, x2 = 0.123	1368	1342	1313	1286	277	84.8	40.6	21.6
10000 kPa, x2 = 0.229	1361	1329	1293	1260	135	54.1	27.2	15.8
10000 kPa, x2 = 0.332	1354	1313	1268	1226	89.2	36.9	20.5	12.3
10000 kPa, x2 = 0.44	1346	1288	1223	1162	43.9	24.7	16.1	10.7
15000 kPa, x2 = 0	1377	1362	1346	1330	468	140	61	29.3
15000 kPa, x2 = 0.056	1374	1356	1338	1319	397	125	51.9	26.4
15000 kPa, x2 = 0.123	1371	1351	1330	1310	287	90.1	42.8	22.6
15000 kPa, x2 = 0.229	1365	1344	1321	1299	144	55.8	28.3	16.5
15000 kPa, x2 = 0.332	1358	1337	1308	1284	91.9	39.9	21.1	12.7
15000 kPa, x2 = 0.44	1351	1323	1286	1255	45.9	24.8	16.5	10.8
20000 kPa, x2 = 0	1379	1364	1349	1332	504	151	63.2	30.5
20000 kPa, x2 = 0.056	1377	1360	1343	1325	424	132	54.5	28
20000 kPa, x2 = 0.123	1375	1356	1338	1319	310	92.4	44.2	23.4
20000 kPa, x2 = 0.229	1368	1350	1329	1310	150	61.2	29.1	16.9
20000 kPa, x2 = 0.332	1362	1342	1319	1298	100	41.6	21.7	12.8
20000 kPa, x2 = 0.44	1355	1330	1304	1278	46.8	26.8	17	10.9
